The values below come from patent publication US4034102A, “4-Substituted-1,3-dithiolan-2-ylidene malonates and pharmaceutical compositions containing the same” (Nihon Nohyaku Co. Ltd., priority 1975, dated 1977).

The test system of data set [1] is CCl4-induced liver damage. Description: Protection against CCl4-induced Hepatotoxicity. The following applies: 6 h before CCl4 (0.05 ml/kg oral), 24 h after CCl4, average of 5 to 6 mice; for Liver damage index: 250 mg/kg oral in olive oil, score 0 normal, 2 slightly recognized, 4 clearly observable damage, 6 heavy damage, CCl4 alone 5.2, control 0; for p-GPT (plasma glutamic-pyruvic transaminase activity): 250 mg/kg oral, values over 1,000 regarded as 1,000, CCl4 alone >1000, control 35. Format: in vivo, mice (four-week-old male, dd strain). From the text: Carbon tetrachloride (CCl4) administration induces centrilobular necrosis of the liver associated with loss of diphosphopyridine nucleotide, hepatic glycogen, coenzyme A and increase in neutral fat. Release of several enzymes from the hepatocytes, and increase of enzyme activities in the plasma are recognized as the result of the damage of the liver. A suitable means for evaluating the degree of damage induced by CCl4 or the degree of protection afforded by drugs is to study the plasma glutamic-pyruvic transaminase (p-GPT) activity.
Methods: The test compounds were dissolved or suspended in olive oil and administered orally at the dose of 250 mg/kg to the mice (Four-week-old male mice-dd strain). After 6 hours, CCl4 was administered orally (0.05 ml/kg as olive oil solution). Animals were killed 24 hours after CCl4 administration, and the liver was grossly observed. The plasma was obtained by centrifugation. Activities of p-GPT were determined by the method of Reitman and Frankels and expressed in Karmen units. Score for liver damage index was as follows:
Each figure indicates average of 5 to 6 mice. Values of p-GPT over 1,000 Karmen unit regarded as 1,000 for calculation of average for convenience.

The next data set can be described thus: in vivo. The following applies: mouse, oral, male mice, read-out: acute oral toxicity LD50. As to the method:
For example, the LD50 value of the compound 12 is more than 3,000 mg/kg. Further, these compounds have no detrimental effects on test animals administered therewith, so far as the doses thereof are within an ordinary administration range.

Each structure is given as a SMILES string.

As for `CC(C)OC(=O)C(C(=O)OC(C)C)=C1SCC(OC(=O)c2ccccc2C(=O)O)S1` (stereo not shown) [Compound 16, phthalic acid semi-ester of diisopropyl 4-hydroxy-1,3-dithiolan-2-ylidene malonate], in data set [1], the Liver damage index is given as 3.2 and the “p-GPT (plasma glutamic-pyruvic transaminase activity)” value (“p-GPT” below) is 482 Karmen units.
The matching figures for `CC(C)OC(=O)C(C(=O)OC(C)C)=C1SCC(OC(=O)CCl)S1` (stereo not shown) [Compound 9, diisopropyl 4-chloroacetoxy-1,3-dithiolan-2-ylidene malonate]: 0.6 and 65 Karmen units.
The matching figures for `CCCOC(=O)C(C(=O)OCCC)=C1SCC(OC(=O)CCC(=O)O)S1` (stereo not shown) [Compound 8, Succinic acid semi-ester of di-n-propyl 4-hydroxy-1,3-dithiolan-2-ylidene malonate]: 0.6 and 77 Karmen units.
Take `CC(C)OC(=O)C(C(=O)OC(C)C)=C1SCC(OC(=O)CCC(=O)O)S1` (stereo not shown) [Compound 11, succinic acid semi-ester of diisopropyl 4-hydroxy-1,3-dithiolan-2-ylidene malonate]: in data set [1], the Liver damage index was 0.2 and the “p-GPT” value is reported as 54 Karmen units.
For `COc1ccc(-c2cc(=S)ss2)cc1` [Anethol trithion, reference compound], in data set [1], the Liver damage index came to 1.6 and the “p-GPT” value amounted to 58 Karmen units.
For `CC(C)OC(=O)C(C(=O)OC(C)C)=C1SCC(OC(=O)CCC(=O)O)S1` (stereo not shown) [Compound 13], in data set [1], the Liver damage index was determined as 0.6 and the “p-GPT” value was 44 Karmen units.
Consider `CC(C)OC(=O)C(C(=O)OC(C)C)=C1SCC(OC(=O)/C=C\C(=O)O)S1` (stereo not shown) [Compound 15], for which, in data set [1], the Liver damage index amounted to 0.4 and the “p-GPT” value is recorded as 62 Karmen units.
With `CCOC(=O)C(C(=O)OCC)=C1SCC(OC(=O)C2=C(C(=O)O)CCCC2)S1` (stereo not shown) [Compound 7], in data set [1], the Liver damage index was 2.2 and the “p-GPT” value was 382 Karmen units.
Regarding `CC(C)OC(=O)C(C(=O)OC(C)C)=C1SCC(OC(=O)c2ccccc2)S1` (stereo not shown) [Compound 10], in data set [1], the Liver damage index amounted to 1.7 and the “p-GPT” value is on record as 520 Karmen units.
For the compound `CC(C)OC(=O)C(C(=O)OC(C)C)=C1SCC(OC(=O)C2=C(C(=O)O)CCCC2)S1` (stereo not shown) [Compound 17], in data set [1], the Liver damage index is 1.8 and the “p-GPT” value is given as 286 Karmen units.
With `CC(C)OC(=O)C(C(=O)OC(C)C)=C1SCC(OC(=O)CCCC(=O)O)S1` (stereo not shown) [Compound 14], in data set [1], the Liver damage index is 0.6 and the “p-GPT” value came out at 102 Karmen units.
As to `NC(=O)CCCCC1CCSS1` (stereo not shown) [Thioctic acid amide, reference compound], in data set [1], the Liver damage index worked out at 4.8 and the “p-GPT” value was 763 Karmen units.
As usually defined, the LD50 is the dose expected to kill half of the subjects tested. Turning to `CC(C)OC(=O)C(C(=O)OC(C)C)=C1SCC(OC(=O)CCC(=O)O)S1` (stereo not shown) [Compound 12], the 50% lethal dose (LD50) in the data set “in vivo” is over 3000 mg/kg. Further, in data set [1], the Liver damage index is 0.2 and the “p-GPT” value came to 33 Karmen units.
On to `CC(C)OC(=O)C(C(=O)OC(C)C)=C1SCC(OC(=O)C2CC=CCC2C(=O)O)S1` (stereo not shown) [Compound 18], for which, in data set [1], the Liver damage index is listed as 2.6 and the “p-GPT” value was 565 Karmen units.
For `CCOC(=O)C(C(=O)OCC)=C1SCC(OC(=O)CCl)S1` (stereo not shown) [Compound 1] the same measures were 1.0 and 102 Karmen units.
For `CCOC(=O)C(C(=O)OCC)=C1SCC(OC(=O)CN(CC)CC)S1` (stereo not shown) [Compound 5, Diethyl 4-diethylaminoacetoxy-1,3-dithiolan-2-ylidene malonate] the same measures were 1.6 and 232 Karmen units.
As to `CCOC(=O)C(C(=O)OCC)=C1SCC(OC(=O)CCC(=O)O)S1` (stereo not shown) [Compound 4], in data set [1], the Liver damage index was found to be 0.2 and the “p-GPT” value is 45 Karmen units.
Consider `CCOC(=O)C(C(=O)OCC)=C1SCC(OC(=O)CCC(=O)O)S1` (stereo not shown) [Compound 2, Succinic acid semi-ester of diethyl 4-hydroxy-1,3-dithiolan-2-ylidene malonate], for which, in data set [1], the Liver damage index came to 0.6 and the “p-GPT” value is given as 43 Karmen units.
`CCCN(CCC)CC(=O)OC1CSC(=C(C(=O)OCC)C(=O)OCC)S1` (stereo not shown) [Compound 6]: in data set [1], the Liver damage index is listed as 1.6 and the “p-GPT” value amounted to 250 Karmen units.
For `CC(C)OC(=O)C(C(=O)OC(C)C)=C1SCC(OC(=O)CN2CCOCC2)S1` (stereo not shown) [Compound 21], in data set [1], the Liver damage index is listed as 1.4 and the “p-GPT” value amounted to 380 Karmen units.
The matching figures for `CCCCOC(=O)C(C(=O)OCCCC)=C1SCC(OC(=O)CN2CCOCC2)S1` (stereo not shown) [Compound 22]: 0.8 and 134 Karmen units.
In the case of `CCOC(=O)C(C(=O)OCC)=C1SCC(OC(=O)CN2CCOCC2)S1` (stereo not shown) [Compound 23], in data set [1], the Liver damage index is on record as 0.8 and the “p-GPT” value is 122 Karmen units.
As for `CCN(CC)CC(=O)OC1CSC(=C(C(=O)OC(C)C)C(=O)OC(C)C)S1` (stereo not shown) [Compound 19, diisopropyl 4-diethylaminoacetoxy-1,3-dithiolan-2-ylidene malonate], in data set [1], the Liver damage index came to 1.2 and the “p-GPT” value is 288 Karmen units.
For `CCOC(=O)C(C(=O)OCC)=C1SCC(OC(=O)CCCC(=O)O)S1` (stereo not shown) [Compound 3] the same measures were 1.2 and 108 Karmen units.
